Assay results taken from ChEMBL document CHEMBL1201862, “PubChem BioAssay data set” (2004).
Where “and” joins values, the source holds several entries; their conditions need not be identical. Equal entries are not always repeated.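 Tested at 5 concentrations; 48 h exposure; 96-well plates; endpoints linearly interpolated, else capped at highest concentration. Here, GI50 denotes the concentration required for 50% inhibition of growth.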 Calls of active or inactive are those of the source. Cut-off read from the data, not from the text of the source: active = GI50 up to about 1.1 µM and inactive = higher.

How the values were obtained:
Assay in all cases: NCI anticancer screen, dose series, 48 h
NCI-H460 = system: NCI-H460
A498 = system: A498
U-251 = system: U-251
LOX IMVI = system: LOX IMVI
SK-MEL-5 = system: SK-MEL-5
SNB-75 = system: SNB-75
HCC 2998 = system: HCC 2998
HL-60 = system: HL-60
HCT-15 = system: HCT-15
M14 = system: M14
SF-539 = system: SF-539
SK-OV-3 = system: SK-OV-3
IGROV-1 = system: IGROV-1
UACC-257 = system: UACC-257
OVCAR-5 = system: OVCAR-5
OVCAR-3 = system: OVCAR-3
SN12C = system: SN12C
Hs-578T = system: Hs-578T
Malme-3M = system: Malme-3M
RPMI-8226 = system: RPMI-8226
NCI-H522 = system: NCI-H522
NCI-H23 = system: NCI-H23
SNB-19 = system: SNB-19
T47D = system: T47D
TK-10 = system: TK-10
ACHN = system: ACHN
COLO 205 = system: COLO 205
SF-268 = system: SF-268
MDA-MB-231 = system: MDA-MB-231
NCI-H226 = system: NCI-H226
EKVX = system: EKVX
K562 = system: K562
HT-29 = system: HT-29
UO-31 = system: UO-31
MCF7 = system: MCF7
NCI/ADR-RES = system: NCI/ADR-RES
KM12 = system: KM12
PC-3 = system: PC-3
UACC-62 = system: UACC-62
SK-MEL-28 = system: SK-MEL-28
SR = system: SR
CCRF-CEM = system: CCRF-CEM
HCT-116 = system: HCT-116
MOLT-4 = system: MOLT-4
SK-MEL-2 = system: SK-MEL-2
CAKI-1 = system: CAKI-1
BT-549 = system: BT-549
SF-295 = system: SF-295
DU-145 = system: DU-145
MDA-MB-435 = system: MDA-MB-435
SW-620 = system: SW-620
OVCAR-8 = system: OVCAR-8
A549 = system: A549
786-0 = system: 786-0
MDA-N = system: MDA-N
HOP-62 = system: HOP-62
RXF 393 = system: RXF 393
OVCAR-4 = system: OVCAR-4
HOP-92 = system: HOP-92

SMILES: CCCCCCCCCCCC(=O)c1c(O)cc(C)oc1=O
- GI50 (NCI-H460): 57.4 µM (inactive)
- GI50 (A498): 81.8 µM (inactive)
- GI50 (U-251): 48.5 µM (inactive)
- GI50 (LOX IMVI): 28.1 µM (inactive)
- GI50 (SK-MEL-5): 29 µM (inactive)
- GI50 (SNB-75): 36.4 µM (inactive)
- GI50 (HCC 2998): 42 µM (inactive)
- GI50 (HL-60): 42.4 µM (inactive)
- GI50 (HCT-15): 41.7 µM
- GI50 (M14): 79.1 µM (inactive)
- GI50 (SF-539): 23.8 µM (inactive)
- GI50 (SK-OV-3): 64.6 µM (inactive)
- GI50 (IGROV-1): 55.5 µM (inactive)
- GI50 (UACC-257): 57.9 µM (inactive)
- GI50 (OVCAR-5): 92.7 µM (inactive)
- GI50 (OVCAR-3): 55.5 µM (inactive)
- GI50 (SN12C): 33.3 µM (inactive)
- GI50 (Hs-578T): 51.6 µM (inactive)
- GI50 (Malme-3M): 45 µM (inactive)
- GI50 (RPMI-8226): > 100 µM (inactive)
- GI50 (NCI-H522): 42.4 µM (inactive)
- GI50 (NCI-H23): 34.8 µM (inactive)
- GI50 (SNB-19): 62.7 µM (inactive)
- GI50 (T47D): 34.8 µM (inactive)
- GI50 (TK-10): > 100 µM (inactive)
- GI50 (ACHN): 31.5 µM (inactive)
- GI50 (COLO 205): 26.5 µM (inactive)
- GI50 (SF-268): 42.2 µM (inactive)
- GI50 (MDA-MB-231): 28.8 µM (inactive)
- GI50 (NCI-H226): 45.6 µM (inactive)
- GI50 (EKVX): 38.5 µM (inactive)
- GI50 (K562): 28.6 µM (inactive)
- GI50 (HT-29): 66.7 µM (inactive)
- GI50 (UO-31): 40.6 µM (inactive)
- GI50 (MCF7): 37.8 µM (inactive)
- GI50 (NCI/ADR-RES): 33.4 µM (inactive)
- GI50 (KM12): 44.9 µM (inactive)
- GI50 (PC-3): 27.2 µM (inactive)
- GI50 (UACC-62): 49.7 µM (inactive)
- GI50 (SK-MEL-28): 75 µM (inactive)
- GI50 (SR): > 10 µM (inactive)
- GI50 (CCRF-CEM): 23.7 µM (inactive)
- GI50 (HCT-116): 45.7 µM (inactive)
- GI50 (MOLT-4): 23.1 µM (inactive)
- GI50 (SK-MEL-2): 56.4 µM (inactive)
- GI50 (CAKI-1): 40.4 µM (inactive)
- GI50 (BT-549): 87.1 µM (inactive)
- GI50 (SF-295): 42.8 µM (inactive)
- GI50 (DU-145): 48.3 µM (inactive)
- GI50 (MDA-MB-435): 49.5 µM (inactive)
- GI50 (SW-620): 41.1 µM (inactive)
- GI50 (OVCAR-8): 33.5 µM (inactive)
- GI50 (A549): 27.8 µM (inactive)
- GI50 (786-0): 80.9 µM (inactive)
- GI50 (MDA-N): 34.6 µM (inactive)
- GI50 (HOP-62): 60 µM (inactive)

SMILES: N#Cc1c(-c2ccccc2)c(C#N)c(=S)n(C2OCC(O)C(O)C2O)c1N (stereo unspecified)
- GI50 (NCI-H460): > 100 µM (inactive)
- GI50 (A498): > 100 µM (inactive)
- GI50 (LOX IMVI): > 100 µM (inactive)
- GI50 (SK-MEL-5): > 100 µM (inactive)
- GI50 (SNB-75): > 100 µM (inactive)
- GI50 (HCC 2998): > 100 µM (inactive)
- GI50 (HL-60): > 100 µM (inactive)
- GI50 (HCT-15): > 100 µM
- GI50 (M14): > 100 µM (inactive)
- GI50 (SF-539): > 100 µM (inactive)
- GI50 (SK-OV-3): > 100 µM (inactive)
- GI50 (IGROV-1): > 100 µM (inactive)
- GI50 (UACC-257): > 100 µM (inactive)
- GI50 (OVCAR-5): > 100 µM (inactive)
- GI50 (OVCAR-3): > 100 µM (inactive)
- GI50 (SN12C): > 100 µM (inactive)
- GI50 (Hs-578T): > 100 µM (inactive)
- GI50 (Malme-3M): > 100 µM (inactive)
- GI50 (RPMI-8226): > 100 µM (inactive)
- GI50 (NCI-H522): > 100 µM (inactive)
- GI50 (NCI-H23): > 100 µM (inactive)
- GI50 (SNB-19): > 100 µM (inactive)
- GI50 (T47D): 75.9 µM (inactive) and 77.4 µM (inactive)
- GI50 (TK-10): 30.8 µM (inactive) and 61.5 µM (inactive)
- GI50 (ACHN): > 100 µM (inactive)
- GI50 (SF-268): > 100 µM (inactive)
- GI50 (MDA-MB-231): > 100 µM (inactive)
- GI50 (NCI-H226): > 100 µM (inactive)
- GI50 (K562): > 100 µM (inactive)
- GI50 (HT-29): > 100 µM (inactive)
- GI50 (UO-31): > 100 µM (inactive)
- GI50 (MCF7): > 100 µM (inactive)
- GI50 (NCI/ADR-RES): > 100 µM (inactive)
- GI50 (KM12): > 100 µM (inactive)
- GI50 (PC-3): > 100 µM (inactive)
- GI50 (UACC-62): > 100 µM (inactive)
- GI50 (SK-MEL-28): > 100 µM (inactive)
- GI50 (SR): > 100 µM (inactive)
- GI50 (CCRF-CEM): > 100 µM (inactive)
- GI50 (MOLT-4): > 100 µM (inactive)
- GI50 (SK-MEL-2): > 100 µM (inactive)
- GI50 (CAKI-1): > 100 µM (inactive)
- GI50 (BT-549): > 100 µM (inactive)
- GI50 (SF-295): > 100 µM (inactive)
- GI50 (DU-145): > 100 µM (inactive)
- GI50 (MDA-MB-435): > 100 µM (inactive)
- GI50 (SW-620): > 100 µM (inactive)
- GI50 (OVCAR-8): > 100 µM (inactive)
- GI50 (A549): > 100 µM (inactive)
- GI50 (786-0): > 100 µM (inactive)
- GI50 (MDA-N): > 100 µM (inactive)
- GI50 (HOP-62): > 100 µM (inactive)

SMILES: O=C(c1cc(Br)ccc1O)c1cc(Br)ccc1O
- GI50 (NCI-H460): 17.6 µM (inactive)
- GI50 (A498): 17.6 µM (inactive)
- GI50 (U-251): 15.5 µM (inactive)
- GI50 (LOX IMVI): 18.2 µM (inactive)
- GI50 (SK-MEL-5): 12.6 µM (inactive)
- GI50 (SNB-75): 16.4 µM (inactive)
- GI50 (HCC 2998): 19.1 µM (inactive)
- GI50 (HL-60): 22.4 µM (inactive)
- GI50 (HCT-15): 18.7 µM
- GI50 (M14): 15.7 µM (inactive)
- GI50 (SF-539): 21.2 µM (inactive)
- GI50 (SK-OV-3): 19.4 µM (inactive)
- GI50 (IGROV-1): 14.3 µM (inactive)
- GI50 (UACC-257): 15.7 µM (inactive)
- GI50 (OVCAR-5): 17.4 µM (inactive)
- GI50 (OVCAR-3): 15.7 µM (inactive)
- GI50 (SN12C): 16.7 µM (inactive)
- GI50 (Hs-578T): 29.8 µM (inactive)
- GI50 (Malme-3M): 17.3 µM (inactive)
- GI50 (RPMI-8226): 11.3 µM (inactive)
- GI50 (NCI-H522): 15 µM (inactive)
- GI50 (NCI-H23): 17.1 µM (inactive)
- GI50 (SNB-19): 17.2 µM (inactive)
- GI50 (T47D): 14.2 µM (inactive)
- GI50 (TK-10): 18.9 µM (inactive)
- GI50 (ACHN): 16.4 µM (inactive)
- GI50 (COLO 205): 17.4 µM (inactive)
- GI50 (SF-268): 19.5 µM (inactive)
- GI50 (MDA-MB-231): 17.2 µM (inactive)
- GI50 (NCI-H226): 20 µM (inactive)
- GI50 (EKVX): 15.6 µM (inactive)
- GI50 (K562): 15.3 µM (inactive)
- GI50 (HT-29): 17.7 µM (inactive)
- GI50 (UO-31): 14.3 µM (inactive)
- GI50 (MCF7): 16.8 µM (inactive)
- GI50 (NCI/ADR-RES): 18.8 µM (inactive)
- GI50 (KM12): 17.1 µM (inactive)
- GI50 (RXF 393): 14.7 µM (inactive)
- GI50 (PC-3): 17.1 µM (inactive)
- GI50 (UACC-62): 13.1 µM (inactive)
- GI50 (SK-MEL-28): 16.8 µM (inactive)
- GI50 (OVCAR-4): 16.6 µM (inactive)
- GI50 (HOP-92): 13.6 µM (inactive)
- GI50 (CCRF-CEM): 22.5 µM (inactive)
- GI50 (HCT-116): 15.9 µM (inactive)
- GI50 (MOLT-4): 18.4 µM (inactive)
- GI50 (SK-MEL-2): 15.7 µM (inactive)
- GI50 (CAKI-1): 18.2 µM (inactive)
- GI50 (BT-549): 17.8 µM (inactive)
- GI50 (SF-295): 17.7 µM (inactive)
- GI50 (DU-145): 15.8 µM (inactive)
- GI50 (MDA-MB-435): 15.8 µM (inactive)
- GI50 (SW-620): 16.4 µM (inactive)
- GI50 (OVCAR-8): 16.9 µM (inactive)
- GI50 (A549): 17.5 µM (inactive)
- GI50 (786-0): 16.9 µM (inactive)
- GI50 (MDA-N): 14.3 µM (inactive)
- GI50 (HOP-62): 18.7 µM (inactive)
